{"source": "patent US12685741B2", "about": "“N-acetylneuraminic acid compositions and methods of use” (LifeScience AS, priority 2017, dated 2026)", "key": {"[1]": {"details": "rat, in vivo, cited from earlier work"}, "[2]": {"details": "cited from earlier work"}, "[3]": {"tested_on": "herpes", "assay": "Oral NANA in a subject with chronic herpes outbreaks", "type": "in vivo, human", "details": "daily dose of 3 grams, outbreaks approximately every other week for 10 years before", "description": "A daily dose of 3 grams NANA was administered to a subject suffering from chronic herpes outbreaks which had occurred approximately every other week for 10 years."}, "[4]": {"details": "cited from earlier work", "remark": "listed apart in the source"}}}
{"compound": "CC(=O)N[C@H]1[C@H]([C@H](O)[C@H](O)CO)OC(O)(C(=O)O)C[C@@H]1O", "note": "(stereo partly drawn) [NANA, N-acetylneuraminic acid]", "values": [{"measurement": "toxic effects", "setting": "[1]; po", "value": "No toxic effects have been detected"}, {"measurement": "NOAEL", "setting": "[1]", "value": 974, "unit": "mg/kg body weight/day"}, {"measurement": "solubility in water", "setting": "[2]", "value": "Easily soluble in water"}, {"measurement": "herpes outbreaks", "setting": "[3]", "value": "has not had a herpes outbreak for two months"}, {"measurement": "absorption after ingestion", "setting": "[4]; in vivo", "value": "rapidly absorbed"}, {"measurement": "excretion", "setting": "[4]; via urine", "value": "quickly excreted"}]}
